According to patent US9334246B2, “Substituted triazines for malaria treatment and chemoprophylaxis” (The United States of America, as represented by the …, priority 2013, dated 2016):

Experiments:
Assay type in all cases: cell-based, Plasmodium falciparum
P. falciparum C235 = assay: Malaria SYBR Green Fluorescence Assay, C235 strain; conditions: for C235: SYBR Green Assay
P. falciparum W2 = assay: Malaria SYBR Green Fluorescence Assay, W2 strain; conditions: for W2: SYBR Green Assay
P. falciparum D6 = assay: Malaria SYBR Green Fluorescence Assay, D6 strain; conditions: for D6: SYBR Green Assay

| Molecule | C235 (SYBR Green Assay IC50) (P. falciparum C235) [µg/mL] | W2 (SYBR Green Assay IC50) (P. falciparum W2) [µg/mL] | D6 (SYBR Green Assay IC50) (P. falciparum D6) [µg/mL] | C235 (P. falciparum C235) [ng/mL] | W2 (P. falciparum W2) [ng/mL] | D6 (P. falciparum D6) [ng/mL] |
| --- | --- | --- | --- | --- | --- | --- |
| CN(C)CCCNc1nc(-c2ccc(-c3ccccc3)cc2)nc(C(Cl)(Cl)Cl)n1 [Cmpd 445] | 0.189 | 0.116 | 0.151 |  |  |  |
| CC(C)N1CCC(CNc2nc(-c3ccc(C(Cl)(Cl)Cl)cc3)nc(C(Cl)(Cl)Cl)n2)CC1 [Cmpd 492] | 0.052 | 0.033 | 0.095 |  |  |  |
| CS(═O)(═O)C1═CC═C(C═C1)C1═NC(NCC2(N)CCCCC2)═NC(═N1)C(Cl)(Cl)Cl [Compound 665] |  |  |  | 147 | 76 | 76 |
| NC1(CNC2═NC(═NC(═N2)C2═CC(Cl)═CC═C2)C(Cl)(Cl)Cl)CC1 [Compound 680] |  |  |  | 98 | 35 | 100 |
| COc1ccc(-c2nc(NCC3(N)CCCC3)nc(C(Cl)(Cl)Cl)n2)cc1OC [Compound 674, COC1═C(OC)C═C(C═C1)C1═NC(NCC2(N)CCCC2)═NC(═N1)C(Cl)(Cl)Cl] |  |  |  | 18 | 6 | 8 |
| COc1ncccc1Nc1nc(NCCN2CCCC2)nc(C(Cl)(Cl)Cl)n1 [Cmpd 350] |  |  |  | 900 | 467 | 560 |
| CCN1CCCC(Nc2nc(-c3ccccc3OC)nc(C(Cl)(Cl)Cl)n2)C1 (stereo not drawn) [Cmpd 215] |  |  |  | 248 | 132 | 426 |
| COc1ccc(Nc2nc(NC3CCN(C)CC3)nc(C(Cl)(Cl)Cl)n2)cn1 [Cmpd 349] |  |  |  | 296 | 129 | 124 |
| CN1CCN(c2nc(-c3ccc(N4CCCC4)cc3)nc(C(Cl)(Cl)Cl)n2)CC1 [Cmpd 427] | 0.877 | 0.459 | 0.676 |  |  |  |
| OCCN1CCCN(c2nc(-c3ccc4ccccc4c3)nc(C(Cl)(Cl)Cl)n2)CC1 [Cmpd 459] | 0.153 | 0.108 | 0.163 |  |  |  |
| NC1(CNc2nc(-c3ccc(Cl)cc3)nc(C(Cl)(Cl)Cl)n2)CC1 [Compound 678, NC1(CNC2═NC(═NC(═N2)C2═CC═C(Cl)C═C2)C(Cl)(Cl)Cl)CC1] |  |  |  | 20 | 12 | 11 |
| COc1cc(OC)cc(-c2nc(NCC3(N)CCOCC3)nc(C(Cl)(Cl)Cl)n2)c1 [Cmpd 529] | 0.055 | 0.055 | 0.059 |  |  |  |
| CS(═O)(═O)c1ccc(cc1)c2nc(Nc3cccnc3)nc(n2)C(Cl)(Cl)Cl [Compound 654] |  |  |  | 271 | 185 | 198 |
| OCCN1CCN(c2nc(Nc3ccc(OC(F)(F)F)cc3)nc(C(Cl)(Cl)Cl)n2)CC1 [Cmpd 302] |  |  |  | 299 | 107 | 166 |
| NC1CCCCC1Nc1nc(-c2ccc(Cl)c(Cl)c2)nc(C(Cl)(Cl)Cl)n1 (stereo not drawn) [Compound 740, NC1CCCCC1NC1═NC(═NC(═N1)C1═CC(Cl)═C(Cl)C═Cl)C(Cl)(Cl)Cl] |  |  |  | 23 | 11 | 38 |
| COc1ncccc1Nc1nc(N2CCCN(C)CC2)nc(C(Cl)(Cl)Cl)n1 [Cmpd 379] | 0.159 | 0.092 | 0.066 |  |  |  |
| COc1ccccc1Cc1nc(NCC(C)(C)N)nc(C(Cl)(Cl)Cl)n1 [Cmpd 292] |  |  |  | 103 | 34 | 77 |
| Clc1ccc(-c2nc(NCc3cccnc3)nc(C(Cl)(Cl)Cl)n2)cc1 [Cmpd 142] |  |  |  | 469 | 112 | 306 |
| COc1ncccc1Nc1nc(N2CCN(C)CC2)nc(C(Cl)(Cl)Cl)n1 [Cmpd 353] | 0.211 | 0.08 | 0.101 |  |  |  |
| CCN1CCC(CNc2nc(-c3ccc(C)cc3)nc(C(Cl)(Cl)Cl)n2)CC1 [Cmpd 265] |  |  |  | 672 | 714 | 803 |
| CS(=O)(=O)c1ccc(-c2nc(NCCc3ccncc3)nc(C(Cl)(Cl)Cl)n2)cc1 [Cmpd 178] |  |  |  | 518 | 162 | 392 |
| CSc1ccc(-c2nc(NCC3(N)CCCCC3)nc(C(Cl)(Cl)Cl)n2)cc1 [Compound 664, CSC1═CC═C(C═C1)C1═NC(NCC2(N)CCCCC2)═NC(═N1)C(Cl)(Cl)Cl] |  |  |  | 47 | 21 | 18 |
| CC(C)N1CCC(CNc2nc(-c3cc(Cl)cc(Cl)c3)nc(C(Cl)(Cl)Cl)n2)CC1 [Cmpd 495] | 0.013 | 0.01 | 0.036 |  |  |  |
| CN1CCC(Nc2nc(-c3ccc(C(Cl)(Cl)Cl)cc3)nc(C(Cl)(Cl)Cl)n2)CC1 [Cmpd 61] |  |  |  | 556 | 376 | 570 |

| Molecule | C235 (SYBR Green Assay IC50) (P. falciparum C235) [µg/mL] | W2 (SYBR Green Assay IC50) (P. falciparum W2) [µg/mL] | D6 (SYBR Green Assay IC50) (P. falciparum D6) [µg/mL] | C235 (P. falciparum C235) [ng/mL] | W2 (P. falciparum W2) [ng/mL] | D6 (P. falciparum D6) [ng/mL] |
| --- | --- | --- | --- | --- | --- | --- |
| CN1CCN(c2nc(-c3ccccc3[N+](=O)[O-])nc(C(Cl)(Cl)Cl)n2)CC1 [Cmpd 549] | 0.663 | 0.236 | 0.503 |  |  |  |
| Clc1ccc(-c2nc(NCCc3ccncc3)nc(C(Cl)(Cl)Cl)n2)cc1 [Cmpd 139] |  |  |  | 320 | 81 | 202 |
| CN1CCN(c2nc(-c3ccccc3)nc(C(Cl)(Cl)Cl)n2)CC1 [Cmpd 239] |  |  |  | 158 | 125 | 192 |
| Cc1ccc(-c2ccccc2-c2nc(NCCN3CCCC3)nc(C(Cl)(Cl)Cl)n2)cc1 [Cmpd 266] |  |  |  | 530 | 474 | 654 |
| Cc1ccc(-c2nc(NCC3CCN(C)CC3)nc(C(Cl)(Cl)Cl)n2)cc1 [Cmpd 503] | 0.026 | 0.014 | 0.044 |  |  |  |
| CN(C)CCCNc1nc(-c2ccc(Cl)cc2)nc(C(Cl)(Cl)Cl)n1 [Cmpd 560] | 0.018 | 0.009 | 0.02 |  |  |  |
| CC(C)N1CCC(CNc2nc(-c3cccc(C(F)(F)F)c3)nc(C(Cl)(Cl)Cl)n2)CC1 [Cmpd 489] | 0.01 | 0.008 | 0.014 |  |  |  |
| COC1═C(OC)C═C(C═C1)C1═NC(NC2CCN(CC(C)C)CC2)═NC(═N1)C(Cl)(Cl)Cl [Compound 702] |  |  |  | 480 | 179 | 435 |
| CS(=O)(=O)c1ccc(-c2nc(NCCNCCO)nc(C(Cl)(Cl)Cl)n2)cc1 [Cmpd 98] |  |  |  | 554 | 366 | 448 |
| Clc1cc(Cl)cc(-c2nc(NCc3ccccn3)nc(C(Cl)(Cl)Cl)n2)c1 [Cmpd 210] |  |  |  | 78 | 72 | 112 |
| CCN1CCCC(Nc2nc(Nc3ccc(OC)nc3)nc(C(Cl)(Cl)Cl)n2)C1 (stereo not drawn) [Cmpd 344] |  |  |  | 98 | 34 | 80 |
| CC(C)(C)c1ccc(-c2nc(NCCc3cccnc3)nc(C(Cl)(Cl)Cl)n2)cc1 [Cmpd 175] |  |  |  | 165 | 54 | 110 |
| CN1CCC(CNc2nc(-c3ccccc3)nc(C(Cl)(Cl)Cl)n2)CC1 [Cmpd 512] | 0.057 | 0.03 | 0.103 |  |  |  |
| CSc1ccc(-c2nc(NC3CC(C)(C)NC(C)(C)C3)nc(C(Cl)(Cl)Cl)n2)cc1 [Cmpd 323] |  |  |  | 51 | 17 | 20 |
| COc1cc(OC)cc(-c2nc(NCCC3CCCN3C)nc(C(Cl)(Cl)Cl)n2)c1 (stereo not drawn) [Cmpd 478] | 0.022 | 0.014 | 0.042 |  |  |  |
| NC1(CNC2═NC(═NC(═N2)C2═CC(Cl)═CC(Cl)═C2)C(Cl)(Cl)Cl)CC1 [Compound 683] |  |  |  | 795 | 503 | 727 |
| CC(=O)Nc1cccc(Nc2nc(C(Cl)(Cl)Cl)nc(C(Cl)(Cl)Cl)n2)c1 [Compound 727, CC(═O)Nc1cccc(Nc2nc(nc(n2)C(Cl)(Cl)Cl)C(Cl)(Cl)Cl)c1] |  |  |  | 319 | 131 | 256 |
| COc1cccc(Cc2nc(N3CCCN(C)CC3)nc(C(Cl)(Cl)Cl)n2)c1 [Cmpd 269] |  |  |  | 627 | 286 | 835 |
| COc1cccc(-c2nc(NCC3CCN(C(C)C)CC3)nc(C(Cl)(Cl)Cl)n2)c1 [Cmpd 485] | 0.045 | 0.024 | 0.094 |  |  |  |
| CN(CCc1ccccn1)c1nc(-c2cc(Cl)cc(Cl)c2)nc(C(Cl)(Cl)Cl)n1 [Cmpd 474] | 0.527 | 0.208 | 0.065 |  |  |  |
| CCN1CCC(CNc2nc(-c3ccc(OC)c4ccccc34)nc(C(Cl)(Cl)Cl)n2)CC1 [Cmpd 279] |  |  |  | 77 | 20 | 66 |
| ClC(Cl)(Cl)c1nc(NCCCN2CCCC2)nc(-c2ccc(-c3ccccc3)cc2)n1 [Cmpd 197] |  |  |  | 137 | 105 | 128 |
| ClC(Cl)(Cl)c1nc(NCCCN2CCCC2)nc(-c2ccccc2)n1 [Cmpd 406] | 0.089 | 0.035 | 0.077 |  |  |  |
| CC(C)CN1CCC(CC1)NC1═NC(═NC(═N1)C1═CC═C(C═C1)C1═CC═CC═C1)C(Cl)(Cl)Cl [Compound 699] |  |  |  | 746 | 430 | 564 |
